Common to all, as to format: binding
For assay [1], the target named is T1, β2 (beta-2 adrenergic receptor) (Homo sapiens, UniProt P07550).
T1 construct: purchased Eurofins Cerep SafetyScreen44
The assay can be described thus: SafetyScreen44: β2.

The target in assay [2] is T2, α2A (alpha-2A adrenergic receptor) (Homo sapiens, UniProt P08913).
T2 construct: purchased Eurofins Cerep SafetyScreen44
T2 sequence (P08913 1-465): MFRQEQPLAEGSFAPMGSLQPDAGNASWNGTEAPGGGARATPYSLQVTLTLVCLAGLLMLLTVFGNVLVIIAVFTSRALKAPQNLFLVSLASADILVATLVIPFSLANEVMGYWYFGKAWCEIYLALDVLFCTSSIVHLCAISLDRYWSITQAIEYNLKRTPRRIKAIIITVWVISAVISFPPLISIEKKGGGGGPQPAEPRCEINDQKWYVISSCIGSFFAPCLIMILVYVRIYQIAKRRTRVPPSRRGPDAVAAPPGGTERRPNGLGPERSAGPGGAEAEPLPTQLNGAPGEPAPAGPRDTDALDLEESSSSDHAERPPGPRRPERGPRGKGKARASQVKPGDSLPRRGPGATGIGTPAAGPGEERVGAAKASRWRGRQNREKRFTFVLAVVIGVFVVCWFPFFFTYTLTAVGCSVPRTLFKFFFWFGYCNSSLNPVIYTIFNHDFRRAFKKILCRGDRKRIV
Put plainly: SafetyScreen44: α2A.

For assay [3], the target named is T3, 5-HT transporter (Homo sapiens, UniProt P31645).
T3 construct: purchased Eurofins Cerep SafetyScreen44
T3 sequence (P31645 whole entry): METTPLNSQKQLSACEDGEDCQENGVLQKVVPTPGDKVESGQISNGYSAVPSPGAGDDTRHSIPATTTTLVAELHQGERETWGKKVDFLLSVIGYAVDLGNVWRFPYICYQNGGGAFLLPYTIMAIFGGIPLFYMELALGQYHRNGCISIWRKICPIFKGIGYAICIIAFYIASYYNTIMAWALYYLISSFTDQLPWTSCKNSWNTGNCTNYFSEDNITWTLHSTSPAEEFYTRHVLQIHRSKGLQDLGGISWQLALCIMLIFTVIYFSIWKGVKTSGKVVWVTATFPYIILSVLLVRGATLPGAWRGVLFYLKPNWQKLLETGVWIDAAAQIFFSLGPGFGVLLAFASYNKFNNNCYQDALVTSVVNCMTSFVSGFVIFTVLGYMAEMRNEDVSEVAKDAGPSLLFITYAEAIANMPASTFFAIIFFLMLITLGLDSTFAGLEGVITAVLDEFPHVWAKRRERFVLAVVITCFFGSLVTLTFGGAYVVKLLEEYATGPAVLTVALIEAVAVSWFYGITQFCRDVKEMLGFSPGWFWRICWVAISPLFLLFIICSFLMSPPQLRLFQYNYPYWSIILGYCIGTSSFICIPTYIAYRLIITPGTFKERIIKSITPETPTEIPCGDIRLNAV
The assay can be described thus: SafetyScreen44: 5-HT transporter.

Assay [4] deals with T4, MAO-A (monoamine oxidase A) (Rattus norvegicus, UniProt P21396).
T4 construct: purchased Eurofins Cerep SafetyScreen44
T4 sequence (P21396 1-526): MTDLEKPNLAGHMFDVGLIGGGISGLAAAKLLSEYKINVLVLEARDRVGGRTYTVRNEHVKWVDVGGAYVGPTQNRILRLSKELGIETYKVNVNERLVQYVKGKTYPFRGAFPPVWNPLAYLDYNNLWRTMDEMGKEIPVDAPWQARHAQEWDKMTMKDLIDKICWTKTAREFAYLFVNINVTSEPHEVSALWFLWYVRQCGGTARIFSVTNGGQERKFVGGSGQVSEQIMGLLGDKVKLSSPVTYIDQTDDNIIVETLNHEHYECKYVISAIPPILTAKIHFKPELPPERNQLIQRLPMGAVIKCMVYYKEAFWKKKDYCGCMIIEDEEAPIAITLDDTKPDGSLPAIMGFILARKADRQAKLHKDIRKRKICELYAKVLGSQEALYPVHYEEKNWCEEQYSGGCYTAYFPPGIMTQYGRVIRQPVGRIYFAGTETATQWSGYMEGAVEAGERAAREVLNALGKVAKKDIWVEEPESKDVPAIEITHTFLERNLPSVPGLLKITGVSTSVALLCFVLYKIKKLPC
Put plainly: SafetyScreen44: MAO-A.

The target of assay [5] is T5, M2 (muscarinic acetylcholine receptor M2) (Homo sapiens, UniProt P08172).
T5 construct: purchased Eurofins Cerep SafetyScreen44
T5 sequence (P08172 1-466): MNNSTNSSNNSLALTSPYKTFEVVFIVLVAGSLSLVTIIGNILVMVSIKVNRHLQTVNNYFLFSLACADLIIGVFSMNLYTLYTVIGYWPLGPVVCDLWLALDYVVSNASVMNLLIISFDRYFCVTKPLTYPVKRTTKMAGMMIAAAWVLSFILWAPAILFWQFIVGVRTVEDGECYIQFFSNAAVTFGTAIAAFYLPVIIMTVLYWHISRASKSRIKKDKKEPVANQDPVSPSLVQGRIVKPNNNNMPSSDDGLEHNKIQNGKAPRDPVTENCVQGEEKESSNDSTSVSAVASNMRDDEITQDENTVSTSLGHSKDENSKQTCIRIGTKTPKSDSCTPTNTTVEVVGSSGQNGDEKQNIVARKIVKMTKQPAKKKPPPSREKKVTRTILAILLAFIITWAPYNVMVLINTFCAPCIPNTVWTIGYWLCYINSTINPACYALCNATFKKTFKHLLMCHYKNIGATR
Put plainly: SafetyScreen44: M2.

Assay [6] deals with T6, α1A (alpha-1A adrenergic receptor) (Homo sapiens, UniProt P35348).
T6 construct: purchased Eurofins Cerep SafetyScreen44
T6 sequence (P35348 1-466): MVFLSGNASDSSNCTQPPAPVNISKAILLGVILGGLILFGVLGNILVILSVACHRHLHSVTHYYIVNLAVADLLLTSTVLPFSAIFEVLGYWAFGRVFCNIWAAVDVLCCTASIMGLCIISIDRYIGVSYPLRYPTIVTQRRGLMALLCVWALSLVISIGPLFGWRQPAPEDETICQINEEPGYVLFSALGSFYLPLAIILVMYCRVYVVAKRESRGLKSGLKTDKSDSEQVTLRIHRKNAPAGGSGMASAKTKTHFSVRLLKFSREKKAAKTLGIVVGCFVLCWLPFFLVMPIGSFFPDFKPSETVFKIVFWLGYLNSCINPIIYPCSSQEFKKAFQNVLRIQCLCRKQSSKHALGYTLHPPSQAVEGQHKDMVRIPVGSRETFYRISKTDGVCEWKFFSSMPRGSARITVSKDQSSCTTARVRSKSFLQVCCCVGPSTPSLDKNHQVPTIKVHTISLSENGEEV
Put plainly: SafetyScreen44: α1A.

Like-named read-outs stand apart in the source and are kept apart here.

T1 sequence (P07550 whole entry): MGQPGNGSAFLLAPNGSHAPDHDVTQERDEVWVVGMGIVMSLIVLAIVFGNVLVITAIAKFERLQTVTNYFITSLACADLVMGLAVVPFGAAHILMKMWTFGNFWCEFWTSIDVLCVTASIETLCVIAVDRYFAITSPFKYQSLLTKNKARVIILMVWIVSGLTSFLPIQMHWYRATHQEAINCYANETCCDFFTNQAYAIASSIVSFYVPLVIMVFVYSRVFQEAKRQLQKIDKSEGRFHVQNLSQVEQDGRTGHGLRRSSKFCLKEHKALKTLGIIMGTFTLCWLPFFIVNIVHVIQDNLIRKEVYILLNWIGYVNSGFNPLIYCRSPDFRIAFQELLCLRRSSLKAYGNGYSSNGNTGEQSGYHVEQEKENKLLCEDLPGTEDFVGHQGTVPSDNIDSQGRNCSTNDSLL

What is called inhibition is the relative decrease from the control value, in per cent. Take `CC(=O)NCCCC[C@@H]1NC(=O)[C@H](Cc2c[nH]c3c(C)cccc23)NC(=O)[C@H]([C@@H](C)O)NC(=O)[C@H](CC(N)=O)NC(=O)[C@@H](NC(C)=O)C(C)(C)SSC(C)(C)[C@@H](C(=O)N[C@@H](Cc2ccc(OCCN)cc2)C(=O)N[C@@H](Cc2ccc3ccccc3c2)C(=O)NC2(C(=O)N[C@@H](CCC(=O)O)C(=O)N[C@@H](CC(N)=O)C(=O)N[C@@H](Cc3cccnc3)C(=O)N(C)CC(N)=O)CCOCC2)NC1=O` [JNJ-77242113, S^3,1,S^3,6-cyclo[N-acetyl-3-sulfanyl-L-valyl-L-asparaginyl-L-threonyl-7-methyl-L-tryptophyl-N^6-acetyl-L-lysyl-3-sulfanyl-L-valyl-O-(2-aminoethyl)-L-tyrosyl-3-(naphthalen-2-yl)-L-alanyl-4-aminooxan-4-carbonyl-L-α-glutamyl-L-asparaginyl-3-(pyridin-3-yl)-L-alanyl-N^2-methylglycinamide]]: the inhibition at 10 µM in assay [1] (1st run, read-out: Percent inhibition of control ligand binding, β2, 1st run) was -8.2%; in assay [1] (2nd run, read-out: Percent inhibition of control ligand binding, β2, 2nd run) it was -0.6%; in assay [1] (mean of 2 runs, read-out: Percent inhibition of control ligand binding, β2, Mean), -4.4%; in assay [2] (1st run, read-out: Percent inhibition of control ligand binding, α2A, 1st run), 0.4%; in assay [2] (2nd run, read-out: Percent inhibition of control ligand binding, α2A, 2nd run), -2.6%; in assay [2] (mean of 2 runs, read-out: Percent inhibition of control ligand binding, α2A, Mean) it was -1.1%. Further, the inhibition at 10 µM in assay [3] (1st run, read-out: Percent inhibition of control ligand binding, 5-HT transporter, 1st run) is -19.9%; in assay [3] (2nd run, read-out: Percent inhibition of control ligand binding, 5-HT transporter, 2nd run), 1.4%; in assay [3] (mean of 2 runs, read-out: Percent inhibition of control ligand binding, 5-HT transporter, Mean), -9.2%; in assay [4] (1st run, read-out: Percent inhibition of control ligand binding, MAO-A, 1st run), 12%; in assay [4] (2nd run, read-out: Percent inhibition of control ligand binding, MAO-A, 2nd run), 10.3%; in assay [4] (mean of 2 runs, read-out: Percent inhibition of control ligand binding, MAO-A, Mean), 11.2%. Further, the inhibition at 10 µM in assay [5] (1st run, read-out: Percent inhibition of control ligand binding, M2, 1st run) is 0.3%; in assay [5] (2nd run, read-out: Percent inhibition of control ligand binding, M2, 2nd run) it was 2%; in assay [5] (mean of 2 runs, read-out: Percent inhibition of control ligand binding, M2, Mean), 1.2%; in assay [6] (1st run, read-out: Percent inhibition of control ligand binding, α1A, 1st run) it was -4.6%; in assay [6] (2nd run, read-out: Percent inhibition of control ligand binding, α1A, 2nd run), 5.5%; in assay [6] (mean of 2 runs, read-out: Percent inhibition of control ligand binding, α1A, Mean), 0.5%.

Values taken from paper PMC11289455 (Scientific Reports, 2024).
